Article PMC9157191, “The ex vivo pharmacology of HIV-1 antiretrovirals differs between macaques and humans” (iScience, 2022)
Each block holds one molecule with its values, some of them ahead of it.

What was measured:
[1] = Drug concentrations in human colorectal tissue explants (LC-MS/MS); type: in vitro ADME; settings: for AUC3h-15d / Cmax: Human colorectal explants, intracellular
[2] = Drug concentrations in human ecto-cervical tissue explants (LC-MS/MS); settings: human ecto-cervical explants; harvesting schedule of the assay
[3] = Drug concentrations in Rhesus macaque ecto-cervical tissue explants (LC-MS/MS); type: in vitro ADME, Rhesus macaque (Macaca mulatta); settings: NHP ecto-cervical explants; harvesting schedule of the assay
[4] = Drug concentrations in Rhesus macaque vaginal tissue explants (LC-MS/MS); type: in vitro ADME, Rhesus macaque (Macaca mulatta); settings: for AUC3h–15d / Cmax: Rh. macaque vaginal explants, intracellular
[5] = Drug concentrations in Rhesus macaque colorectal tissue explants (LC-MS/MS); type: in vitro ADME, Rhesus macaque (Macaca mulatta); settings: for AUC3h–15d / Cmax: Rh. macaque colorectal explants, intracellular
[6] = test system: SIVmac32H; test: microbe, parasite or virus in culture; type: cell-based; settings: for p27 AUC3-15: Rhesus macaque colorectal explants
[7] = test system: SIVmac32H K65RM184V; test: microbe, parasite or virus in culture; type: cell-based; settings: for p27 AUC3-15: Rhesus macaque colorectal explants
[8] = test system: HIV-1YU.2; test: microbe, parasite or virus in culture; type: cell-based; settings: Human colorectal explants
[9] = test system: RT-SHIV; test: tissue or blood; type: cell-based; settings: for p27 AUC3-15: Rhesus macaque vaginal explants
[10] = test system: SIVmac32H K65RM184V; test: microbe, parasite or virus in culture; type: cell-based; settings: for p27 AUC3-15: Rhesus macaque cervical explants
[11] = test system: SIVmac32H; test: microbe, parasite or virus in culture; type: cell-based; settings: for p27 AUC3-15: Rhesus macaque cervical explants
[12] = test system: HIV-1YU.2 L313T/I321V and V314T/I321V; type: cell-based
[13] = test system: HIV-1BaL; test: microbe, parasite or virus in culture; type: cell-based; settings: Human cervical explants
[14] = test system: HIV-1YU.2 K65R; test: microbe, parasite or virus in culture; type: cell-based; settings: Human colorectal explants
[15] = test system: RT-SHIV; test: tissue or blood; type: cell-based; settings: for p27 AUC3-15: Rhesus macaque colorectal explants
[16] = test system: HIV-1BaL; test: microbe, parasite or virus in culture; type: cell-based; settings: Human colorectal explants
[17] = test system: HIV-1YU.2 M184V; test: microbe, parasite or virus in culture; type: cell-based; settings: Human colorectal explants
[18] = test system: HIV-1YU.2 K65RM184V; test: microbe, parasite or virus in culture; type: cell-based; settings: Human colorectal explants;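 for p24 AUC3-15: high arm above the IC50 and low arm below the IC50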
[19] = test system: SIVmac32H; test: microbe, parasite or virus in culture; type: cell-based; settings: for p27 AUC3-15: Rhesus macaque vaginal explants
[20] = test system: HIV-1/SIV/SHIV isolates; type: cell-based
[21] = test system: SIVmac32H K65RM184V; test: microbe, parasite or virus in culture; type: cell-based; settings: for p27 AUC3-15: Rhesus macaque vaginal explants
[22] = Comb. gel, High [ ]: TFV 70 µM + MVC […]
[23] = Comb. gel, Low [ ]: TFV 7 µM + MVC […]
[24] = Single gel, High [ ]: TFV 70 µM
[25] = NHP colorectal explants, day 15
[26] = high concentration: TFV 70 µM, MVC […], or TFV 70 µM + MVC […]
[27] = low concentration: TFV 7 µM, MVC […], or TFV 7 µM + MVC […]

AUC3h-15d [1, 22]: 82.53 fmol·days/mg
Cmax [1, 22]: 20.07 fmol/mg
AUC3h-15d [1, 23]: 41.21 fmol·days/mg
Cmax [1, 23]: 8.36 fmol/mg
AUC3h-15d [1, 24]: 98.95 fmol·days/mg
Cmax [1, 24]: 22.41 fmol/mg
AUC3h-15d ([1]; Single gel, Low [ ]: TFV 7 µM): 35.29 fmol·days/mg
Cmax ([1]; Single gel, Low [ ]: TFV 7 µM): 8.36 fmol/mg
difference in TFVdp concentrations between NHP and humans ([1]; colorectal explants): No significant differences
TFVdp detection [2]: neither detected
TFVdp detection [3]: neither detected
Cmax fold increase ([4]; NHP vaginal Cmax lower than in colorectal explants): 1.6 fold
AUC3h–15d [4, 22]: 96.03 fmol·days/mg
Cmax [4, 22]: 12.81 fmol/mg
AUC3h–15d [4, 23]: 54.08 fmol·days/mg
Cmax [4, 23]: 7.21 fmol/mg
AUC3h–15d [4, 24]: 134.18 fmol·days/mg
Cmax [4, 24]: 17.89 fmol/mg
AUC3h–15d ([4]; Single gel, Low [ ]: TFV 7 µM): 46.22 fmol·days/mg
Cmax ([4]; Single gel, Low [ ]: TFV 7 µM): 6.16 fmol/mg
persistence of metabolite: detected post-dose ([4]; vaginal tissue): 3 h
AUC3h–15d [5, 22]: 148.40 fmol·days/mg
Cmax [5, 22]: 29.12 fmol/mg
AUC3h–15d [5, 23]: 107.96 fmol·days/mg
Cmax [5, 23]: 24.43 fmol/mg
AUC3h–15d [5, 24]: 176.28 fmol·days/mg
Cmax [5, 24]: 41.93 fmol/mg
AUC3h–15d ([5]; Single gel, Low [ ]: TFV 7 µM): 164.03 fmol·days/mg
Cmax ([5]; Single gel, Low [ ]: TFV 7 µM): 41.47 fmol/mg
persistence of metabolite: still detected post-dose ([5]; colorectal explants): up to 3 days
Molecule: CC(Cn1cnc2c(N)ncnc21)OCP(=O)(O)OP(=O)(O)OP(=O)(O)O (stereo in doubt) [TFVdp]

Molecule: Maraviroc [MVC]
IC50 [6, 25]: 1960 ± 1300 nM
p27 AUC3-15 [6, 26]: 2.42 ± 0.53 µgxd/ml
p27 AUC3-15 [6, 27]: 6.12 ± 1.35 µgxd/ml
IC50 [7, 25]: 1980 ± 1070 nM
p27 AUC3-15 [7, 26]: 1.33 ± 0.22 µgxd/ml
p27 AUC3-15 [7, 27]: 1.65 ± 0.32 µgxd/ml
IC50 ([8]; day 15): 1150 ± 840 nM
p24 AUC3-15 [8, 26]: 1.60 ± 0.57 µgxd/ml
p24 AUC3-15 [8, 27]: 9.15 ± 5.28 µgxd/ml
IC50 ([9]; NHP vaginal explants, day 15): 2560 ± 1590 nM
p27 AUC3-15 [9, 26]: 1.27 ± 0.28 µgxd/ml
p27 AUC3-15 [9, 27]: 1.54 ± 0.31 µgxd/ml
IC50 ([10]; NHP cervical explants, day 15): 4.57 ± 2.92 µM
p27 AUC3-15 [10, 26]: 1.37 ± 0.30 µgxd/ml
p27 AUC3-15 [10, 27]: 1.62 ± 0.33 µgxd/ml
IC50 ([11]; NHP cervical explants, day 15): 2740 ± 1180 nM
p27 AUC3-15 [11, 26]: 1.27 ± 0.35 µgxd/ml
p27 AUC3-15 [11, 27]: 1.42 ± 0.44 µgxd/ml
inhibitory potency against Env-mutated HIV-1YU.2 [12]: no reduction of inhibitory potency
IC50 ([13]; day 15): 2850 ± 490 nM
p24 AUC3-15 [13, 26]: 1.32 ± 0.36 µgxd/ml
p24 AUC3-15 [13, 27]: 2.61 ± 1.35 µgxd/ml
IC50 ([14]; day 15): 2770 ± 1120 nM
p24 AUC3-15 [14, 26]: 0.36 ± 0.05 µgxd/ml
p24 AUC3-15 [14, 27]: 0.76 ± 0.10 µgxd/ml
IC50 [15, 25]: 2320 ± 780 nM
p27 AUC3-15 [15, 26]: 2.85 ± 2.01 µgxd/ml
p27 AUC3-15 [15, 27]: 5.25 ± 3.12 µgxd/ml
IC50 ([16]; day 15): 1260 ± 490 nM
p24 AUC3-15 [16, 26]: 0.59 ± 0.33 µgxd/ml
p24 AUC3-15 [16, 27]: 2.68 ± 1.79 µgxd/ml
IC50 ([17]; day 15): 1240 ± 1880 nM
p24 AUC3-15 [17, 26]: 0.26 ± 0.13 µgxd/ml
p24 AUC3-15 [17, 27]: 0.70 ± 0.11 µgxd/ml
IC50 ([18]; day 15): 1430 ± 980 nM
p24 AUC3-15 [18, 26]: 0.82 ± 0.09 µgxd/ml
p24 AUC3-15 [18, 27]: 1.60 ± 0.38 µgxd/ml
IC50 ([19]; NHP vaginal explants, day 15): 3.32 ± 3.19 µM
p27 AUC3-15 [19, 26]: 1.26 ± 0.24 µgxd/ml
p27 AUC3-15 [19, 27]: 1.45 ± 0.28 µgxd/ml
potency against the mutant isolates [20]: no impact
IC50 ([21]; NHP vaginal explants, day 15): 3.31 ± 1.68 µM
p27 AUC3-15 [21, 26]: 1.33 ± 0.30 µgxd/ml
p27 AUC3-15 [21, 27]: 1.55 ± 0.28 µgxd/ml
